Like-named read-outs stand apart in the source and are kept apart here.
Columns and labels:
human 5-HT1A receptor [1] = target: T1, human 5-HT1A receptor (Homo sapiens, UniProt P08908); experiment: 5-HT1A receptor binding, [3H]8-OH-DPAT displacement in membranes of CHO cells expressing the human receptor; settings: 5-HT1A.CHO membranes; for inhibition at 0.1 µM: at .1 μM, [3H]8-OH-DPAT, read-out: 5-HT1A (% Inh. @ .1 μM); for Ki: [3H]8-OH-DPAT 1.5 nM, 30 min, room temperature
T1 construct: expressed in transfected cells
T1 sequence (P08908 1-422): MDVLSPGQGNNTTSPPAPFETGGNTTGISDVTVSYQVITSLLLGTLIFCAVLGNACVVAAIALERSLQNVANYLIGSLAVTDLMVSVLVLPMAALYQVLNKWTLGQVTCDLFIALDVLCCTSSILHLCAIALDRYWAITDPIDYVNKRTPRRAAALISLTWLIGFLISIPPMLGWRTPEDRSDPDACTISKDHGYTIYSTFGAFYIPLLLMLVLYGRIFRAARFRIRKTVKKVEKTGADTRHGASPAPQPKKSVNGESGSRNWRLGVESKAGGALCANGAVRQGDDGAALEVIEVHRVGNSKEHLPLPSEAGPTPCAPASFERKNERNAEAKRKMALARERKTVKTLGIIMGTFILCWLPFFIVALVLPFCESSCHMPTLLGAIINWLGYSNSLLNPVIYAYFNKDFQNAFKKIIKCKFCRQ
Experimental: (§1) The PCR cloning of the human ^5 -HT1A receptor subtype from a human genomic library has been described previously by Chanda et al., Mol. Pharmacol., 43:516 (1993). A stable Chinese hamster ovary cell line expressing the human S-HT1A receptor subtype (5-HT1A.CHO cells) was employed throughout this study. Cells were maintained in DMEM supplemented with 10% fetal calf serum, non-essential amino acids and penicillin/ streptomycin.
Cells were grown to 95-100% confluency as a monolayer before membranes were harvested for binding studies. Cells were gently scraped from the culture plates, transferred to centrifuge tubes, and washed twice by centrifugation (2000 rpm for 10 min., 4° C.) in buffer (50 mM Tris; pH 7.5). The resulting pellets were aliquoted and placed at -80.C. On the day of assay, the cells were thawed on ice, and resuspended in buffer. Studies were conducted using [^3 H]8-OH-DPAT as the radioligand. The binding assay was performed in 96 well mnicrotiter plates in a final total volume of 250 μL of buffer. Comparison experiments were performed by using 7 concentrations of unlabelled drug and a final ligand concentration of 1.5 nM . Non-specific binding was determined in the presence of 10 μM 5HT. Saturation analysis was conducted by using [^3 H]8-OH-DPAT at concentrations ranging from 0.3-30 nM. Following a 30 minute incubation at room temperature, the reaction was terminated by the addition of ice cold buffer and rapid filtration using a M-96 Brandel Cell Harvester Gaithersburg, Md.) through a GF/B filter presoaked for 30 minutes in 0.5% polyethyleneimine.

serotonin transporter = target: T2, serotonin transporter (Rattus norvegicus, UniProt P31652); experiment: serotonin transporter (ST) binding, 3H-paroxetine displacement in rat frontal cortical membranes; set-up: species or system rat (male Sprague-Dawley)
T2 construct: frontal cortical membranes prepared from male Sprague-Dawley rats; from tissue; host or cells: frontal cortical membranes of male Sprague-Dawley rats
Experimental: A protocol similar to that used by Cheetham et al., Neuropharmacol. , 32:737 (1993) was used to determine the affinity of compounds for the serotonin transporter. Briefly, frontal cortical membranes prepared from male Sprague-Dawley rats were incubated with ^3 H-paroxetine (0.1 nM) for 60 min at 25° C. All tubes also contained either vehicle, test compound (one to eight concentrations), or a saturating concentration of fluoxetine (10 μM) to define […]. All reactions were terminated by the addition of ice cold Tris buffer followed by rapid filtration using a Tom Tech filtration device to separate bound from free ^3 H-paroxetine. Bound radioactivity was quantitated using a Wallac 1205 Beta Plate® counter. Nonlinear regression analysis was used to determine IC50 values which were converted to Ki values using the method of Cheng and Prusoff, Biochem. Pharmacol., 22:3099 (1973); Ki=IC50/((Radioligand conc.)/(1+KD)).

human 5-HT1A receptor [2] = target: T1, human 5-HT1A receptor; experiment: [35S]-GTPγS binding in 5-HT1A cloned receptor membrane fragments; type: biochemical; settings: [35S]GTPγS 1 nM, 30 min, 30° C.; excess 8-OH-DPAT defines maximum agonist response
Text: as §1
The [^35 S]-GTPγS binding assay was similar to that used by Lazareno and Birdsall, Br. J. Pharmacol. 109:1120 (1993). Briefly, 5-HT1A cloned receptor membrane fragments (as used for 5-H1A receptor binding assays) were stored at -70° C. until needed. When needed, membranes were rapidly thawed, centrifuged at 40,000×g for 10 minutes and resuspended at 4° C. for 10 minutes in assay buffer (25 mM HEPES, 3 mM MgCl2, 100 mnM NaCl, 1 mM EDTA, 10 uM GDP, […] DTT, pH 8.0). These membranes were then incubated for 30 min at 30° C. with [^35 S]GTPgS (1 nM) in the presence of vehicle, test compound (one to eight concentrations), or excess 8-OH-DPAT to define maximum agonist response. All reactions are terminated by the addition of ice cold Tris buffer followed by rapid filtration using a Tom Tech® filtration device to separate bound from free [^35 S]GTPgS. Agonists produce an increase in the amount of [^35 S]GTPgS bound whereas antagonists produce no increase in binding. Bound radioactivity was counted and analyzed as above.

[3] = 3H-paroxetine 0.1 nM, 60 min, 25° C., rat frontal cortical membranes, IC50 converted to Ki (Cheng-Prusoff), read-out: ST (Ki)

T2 sequence (P31652 whole entry): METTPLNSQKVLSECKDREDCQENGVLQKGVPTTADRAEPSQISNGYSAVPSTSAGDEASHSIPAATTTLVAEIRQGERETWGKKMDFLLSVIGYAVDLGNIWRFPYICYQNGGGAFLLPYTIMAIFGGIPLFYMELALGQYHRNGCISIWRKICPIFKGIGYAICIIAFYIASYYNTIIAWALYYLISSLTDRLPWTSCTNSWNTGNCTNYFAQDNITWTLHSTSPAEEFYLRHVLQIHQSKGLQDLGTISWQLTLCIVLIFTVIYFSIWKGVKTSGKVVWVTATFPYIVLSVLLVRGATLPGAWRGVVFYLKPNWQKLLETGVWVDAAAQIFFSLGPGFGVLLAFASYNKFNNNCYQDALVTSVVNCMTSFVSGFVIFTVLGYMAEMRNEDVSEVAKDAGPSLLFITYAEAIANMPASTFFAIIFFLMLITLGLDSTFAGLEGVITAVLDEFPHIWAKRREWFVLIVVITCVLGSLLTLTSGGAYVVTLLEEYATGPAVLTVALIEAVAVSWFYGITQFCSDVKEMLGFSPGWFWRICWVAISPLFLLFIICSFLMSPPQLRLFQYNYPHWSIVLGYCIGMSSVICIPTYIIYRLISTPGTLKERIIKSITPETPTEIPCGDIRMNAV

Question: For `COc1cccc2c1OC(CN1CC=C(c3c[nH]c4ccc(F)cc34)CC1)CN2c1ccc(C(F)(F)F)cc1` (centres unmarked) [Example 7, 2-[4-(5-Fluoro-1H-Indol-3-yl)-3,6-dihydro-2H-pyridin-1-ylmethyl]-8-methoxy-4-(4-trifluoromethyl-phenyl)-3,4-dihydro-2H-benzo[1,4]oxazine], which inhibition at 0.1 µM (human 5-HT1A receptor [1]) is on record?
Answer: 0%

Question: What about the Ki (serotonin transporter; [3]) of the same compound?
Answer: 505 nM

Question: How did the Ki (human 5-HT1A receptor [1]) turn out when `COc1cccc2c1OC(CN1CC=C(c3c[nH]c4ccc(F)cc34)CC1)CN2C` (centres unmarked) [Example 2, 2-[4-(5-Fluoro-1H-indol-3-yl)-3,6-dihydro-2H-pyridin-1-ylmethyl]-8-methoxy-4-methyl-3,4-dihydro-2H-benzo[1,4]oxazine] was run?
Answer: 140 nM

Question: What about the Ki (serotonin transporter) of the same compound?
Answer: 8.5 nM

Question: And the Emax (human 5-HT1A receptor [2])?
Answer: 97%

Question: `CCN1CC(CN2CC=C(c3c[nH]c4ccc(F)cc34)CC2)Oc2c(OC)cccc21` (centres unmarked) [Example 3, 2-[4-(5-Fluoro-1H-indol-3-yl)-3,6-dibydro-2H-pyridin-1-ylmetbyl]-8-methoxy-4-ethyl-3,4-dihydro-2H-benzo[1,4]oxazine] was tested. Which Ki (human 5-HT1A receptor [1]) did it give?
Answer: 137 nM

Question: What about the Ki (serotonin transporter) of the same compound?
Answer: 12 nM

Question: And the Emax (human 5-HT1A receptor [2])?
Answer: 62%

Question: Which results are given for `COc1cccc2c1OC(CN1CC=C(c3c[nH]c4ccc(F)cc34)CC1)CN2` (centres unmarked) [Example 1, 2-[4-(5-Fluoro-1H-indol-3-yl)-3,6-dihydro-2H-pyridin-1-ylmethyl]-8-methoxy-3,4-dihydro-2H-benzo[1,4]oxazine]?
Answer: Ki (human 5-HT1A receptor [1]): 155 nM; Ki (serotonin transporter): 3.7 nM; Emax (human 5-HT1A receptor [2]): 10%

Question: With `C1=C(c2c[nH]c3ccccc23)CCN(CC2CNc3ccccc3O2)C1` (centres unmarked) [Example 5, 2-[4-(1H-Indol-3-yl)-3,6-dihydro-2H-pyridin-1-ylmethyl]-3,4-dihydro-2H-benzo[1,4]oxazine] as the compound, how does the Ki (human 5-HT1A receptor [1]) read?
Answer: 805 nM

Question: And the Ki (serotonin transporter; [3])?
Answer: 0.74 nM

Question: And the Emax (human 5-HT1A receptor [2])?
Answer: 57%

Question: Which Ki (human 5-HT1A receptor [1]) does the source give for `CCCN1CC(CN2CC=C(c3c[nH]c4ccc(F)cc34)CC2)Oc2c(OC)cccc21` (centres unmarked) [Example 4, 2-[4-(5-Fluoro-1H-indol-3-yl)-3,6-dihydro-2H-pyridin-1-ylmethyl]-8-methoxy-4-propyl-3,4-dihydro-2H-benzo[1,4]oxazine] here?
Answer: 363 nM

Question: And the Ki (serotonin transporter)?
Answer: 20 nM

Question: And the Emax (human 5-HT1A receptor [2])?
Answer: 100%

Question: Which inhibition at 0.1 µM (human 5-HT1A receptor [1]) does the source give for `C1=C(c2c[nH]c3ncccc23)CCN(CC2CN(c3ccccc3)c3ccccc3O2)C1` (centres unmarked) [Example 6, 4-Phenyl-2-[4-(1H-pyrrolo[2,3,b]pyridin-3yl)-3,6-dihydro-2H-pyridin-1-ylmethyl]-3,4-dihydro-2H-benzo[1,4]oxazine] here?
Answer: 20%

Question: And the Ki (serotonin transporter)?
Answer: 106 nM

Question: What about the Emax (human 5-HT1A receptor [2]) of the same compound?
Answer: 0%
